Measurements from US20230302082A1, “AGENT FOR REVERSIBLE OPENING OF NEURAL VASCULAR BARRIER” (YAMAGUCHI UNIVERSITY, priority 2020, published 2023).
Where a name gives a salt, the structure may show the parent alone.

Tests used:
[1] = test system: mouse retinal vasculature; assay: Permeability of the retinal vasculature (leakage of injected tracer dye, index of blood-retinal barrier function); assay type: in vivo; settings: mouse retina, single intravenous injection 200 μg/kg
Experimental: (§1) Seven-week-old male C57B6/N mice (Japan SLC, Inc.) were given a single intravenous injection (200 μg/kg) of CypA. A change in the expression level of claudin-5 localized in the endothelial cell membranes of the retinal vasculature and permeability of the retinal vasculature were measured 3, 6, and 24 hours after the […] injection. The change in the expression of claudin-5 was measured by immunofluorescence staining using the rabbit polyclonal antibodies against claudin-5 in the same manner as in Example 1. The above-mentioned measurement of the permeability of the retinal vasculature was performed as follows.
First, 500 μL of PBS containing 100 μg/mL Hoechst dye H33258 (molecular weight 534 Da, Sigma-Aldrich) and 1 mg/mL tetramethylrhodamine-conjugated lysine-fixable dextran (molecular weight 10,000 Da, Thermo Fisher Scientific) was injected into the left ventricle as a tracer dye. After injection of the Hoechst dye, eyes were enucleated and immediately fixed with 4% paraformaldehyde (PFA) for 15 min at room temperature under light protection, thereby preparing retinal flat mounts. They were mounted in a fluorescent mounting medium, and leakage of the injected tracer was observed under a Zeiss LSM510 META laser confocal microscope (Carl Zeiss AG) to measure the permeability of the retinal vasculature (an index of blood-retinal barrier function). Experiments were performed independently 3 times or more.

neural vascular barrier = assay: Uptake of intravenously administered doxorubicin into cerebrum, liver and kidney with or without preadministration of CypA (doxorubicin fluorescence); assay type: in vivo, mouse
Experimental: Further, fluorescence emitted by doxorubicin was used to evaluate the uptake of doxorubicin into the cerebrum, the liver and the kidney. […] Fujifilm Wako Pure Chemical Corp.), an anticancer drug with low intracerebral penetration, was injected into caudal veins of mice with or without pre-injection of CypA (200 μg/kg). Pre-injection of CypA was performed intravenously 3 hours prior to the injection of doxorubicin. Mice were sacrificed 3 hours after the injection of doxorubicin hydrochloride, and the cerebrum, the liver, and the kidney were collected and embedded and frozen in OCT compound. Next, frozen sections of 30 μm thickness were prepared and observed under an LSM710 laser confocal microscope (Carl Zeiss AG).

[2] = test system: mouse brain microvascular endothelial cell line bEnd.3 cells; assay: Immunofluorescence staining and quantification of claudin-5 signals on the cell membranes of monolayer-cultured bEnd.3 cells; assay type: cell-based
Experimental: (§2) In an in vitro system, mouse brain microvascular endothelial cell line bEnd.3 cells (obtained from the American Type Culture Collection) were grown as a monolayer at 37° C. under 5% CO^2 in Dulbecco's modified Eagle's medium containing 4500 mg/L glucose (Sigma-Aldrich) supplemented with 10% fetal bovine serum (FBS). CypA (200, 300 or 400 ng/ml: BioVendor R&D) was added to the culture supernatant of the monolayer-cultured bEnd.3 cells, followed by incubation for 3 hours. Subsequently, expression changes of claudin-5 in the bEnd.3 cells were observed by immunofluorescence staining, and claudin-5 signals on the cell membranes were quantified. Further, TEER, an index of vascular barrier function, was measured in the bEnd.3 cell monolayer.
The immunofluorescence staining was performed as follows. First, the cultured bEnd.3 cells were fixed with 100% methanol for 5 min at room temperature and incubated with 10% non-immune goat serum (Invitrogen) for 30 minutes to block non-specific binding of antibodies. Next, the cells were reacted with rabbit polyclonal antibodies against claudin-5 (1/25 dilution, Invitrogen) at 4° C. overnight. After washing with phosphate-buffered saline (PBS), the cells were incubated with Alexa Fluor 488 goat anti-rabbit IgG (1/200 dilution, Eugene) for 1 hour at room temperature under light protection. […] For a quantitative analysis, fluorescence intensities of claudin-5 on the plasma membranes were measured using an operation menu installed in LSMS Pascal6, 7.3. […] Fluorescence intensities were then quantified at points on the cell membranes that intersected the drawn straight lines. The mean value of the fluorescence intensities was calculated as an expression level of claudin-5 on the cell membranes of each monolayer at approximately 80 points. […]
The immunofluorescence staining, the quantification of the claudin-5 signals on the cell membranes, and the measurement of TEER in the bEnd.3 cell monolayer were performed in the same manner as in Example 1 except that CypA (300 ng/ml: BioVendor R&D) lacking PPlase activity was used as CypA. […]

[3] = test system: mouse retinal vasculature; assay: Claudin-5 expression in endothelial cell membranes of the retinal vasculature after intravenous CypA (immunofluorescence); assay type: in vivo; settings: mouse retina, single intravenous injection 200 μg/kg
Excerpt: Based on the results of Example 1, a change in the barrier function caused by CypA administration was examined in vivo using a mouse retinal tissue. Note that the retina is a tissue that is formed as an outgrowth of the central neural system during the process of ontogeny and is a part of the central neural system like the brain. Since the vascular system of the retina can be two-dimensionally observed and evaluated over the entire length in the longitudinal direction, the retina was used as an analysis material representing the central neural system in the present example.
as §1

bEnd.3 cell monolayer = assay: TEER (index of vascular barrier function) of the bEnd.3 cell monolayer; assay type: cell-based, mouse
Experimental: as §2
The immunofluorescence staining, the quantification of the claudin-5 signals on the cell membranes, and the measurement of TEER in the bEnd.3 cell monolayer were performed in the same manner as in Example 1 except that CypA (300 ng/ml: BioVendor R&D) lacking PPlase activity was used as CypA.
In order to evaluate the opening effect of CypA on the neural vascular barrier over time, the same experiment as in Example 1 was performed while changing the treatment time of CypA. Specifically, CypA at a concentration of 300 ng/ml was applied to the cells, followed by incubation for 1, 3, 6, 9, and 12 hours. Then, the cells were subjected to the immunofluorescence staining, the quantification of the claudin-5 signals on the cell membranes, and the measurement of TEER in the bEnd.3 cell monolayer.

Compound	leakage of the injected tracer dye ([1]; 3 hours (FIG. 4b))	leakage of the injected tracer dye ([1]; 6 hours (FIG. 4b))	leakage of the injected tracer dye ([1]; 24 hours (FIG. 4b))	effect of CypA preadministration on delivery of doxorubicin to the neural tissue parenchyma (neural vascular barrier; mouse cerebrum, CypA 200 μg/kg i.v. 3 hours before doxorubicin hydrochloride 6.25 mg/kg i.v.)	effect of CypA pre-injection on intensities of doxorubicin fluorescence signals in the liver and the kidney (neural vascular barrier; mouse, CypA 200 μg/kg i.v. 3 hours before doxorubicin hydrochloride 6.25 mg/kg i.v.)	claudin-5 level on the cell membranes ([2]; CypA 300 ng/ml, 3 hours after treatment (FIG. 3a, 3b))	claudin-5 level on the cell membranes ([2]; CypA 300 ng/ml, 6 hours (FIG. 3a, 3b))	claudin-5 level on the cell membranes ([2]; CypA 200, 300 or 400 ng/ml, 3 hours after treatment (FIG. 1a, 1B))	expression level of claudin-5 in the cell membranes of the peripheral microvascular endothelial cells ([3]; 3 hours (FIG. 4a))	expression level of claudin-5 in the cell membranes of the peripheral microvascular endothelial cells ([3]; 24 hours (FIG. 4a))	barrier function (TEER) (bEnd.3 cell monolayer; CypA 300 ng/ml, 3 hours after treatment (FIG. 3c))	barrier function (TEER) (bEnd.3 cell monolayer; CypA 300 ng/ml, 6 hours (FIG. 3c))	barrier function (TEER) (bEnd.3 cell monolayer; CypA 200, 300 or 400 ng/ml, 3 hours after treatment (FIG. 1c))	fluorescent signals of doxorubicin in the liver and the kidney (neural vascular barrier; mouse, doxorubicin hydrochloride 6.25 mg/kg i.v., 3 hours after injection, with or without pre-injection of CypA)	doxorubicin fluorescence signal in the cerebrum (neural vascular barrier; mouse, doxorubicin hydrochloride 6.25 mg/kg i.v., 3 hours after injection, with preadministration of CypA 200 μg/kg i.v. 3 hours before)	doxorubicin fluorescence signal in the cerebrum (neural vascular barrier; mouse, doxorubicin hydrochloride 6.25 mg/kg i.v., 3 hours after injection, without preadministration of CypA)
Cyclophilin A [CypA]	increased	decreased after 6 hours as compared with after 3 hours	returned to an undetectable physiological level	allowed the intravenously administered doxorubicin to pass through the neural vascular barrier and reach the neural tissue parenchyma	not significantly affected	decreased significantly	recovered to the level prior to the CypA stimulation	significantly reduced	decrease	recovered to a physiological level	significantly decreased	recovered to the state prior to the CypA stimulation	significant reduction in the barrier function			
COc1cccc2c1C(=O)c1c(O)c3c(c(O)c1C2=O)C[C@@](O)(C(=O)CO)C[C@@H]3O[C@H]1C[C@H](N)[C@H](O)[C@H](C)O1 [doxorubicin, Doxorubicin hydrochloride]														strong fluorescent signals of doxorubicin were detected	significant doxorubicin fluorescence signals were detected	no doxorubicin fluorescence signal was detected
